Laboratory results from ChEMBL document CHEMBL1201862, “PubChem BioAssay data set” (2004).
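A five-concentration, 48-hour dose response in 96-well plates underlies each endpoint, interpolated linearly between surrounding concentrations. At the GI50, growth is halved.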 Calls of active or inactive are those of the source. Cut-off read from the data, not from the text of the source: active = GI50 up to about 1.1 µM and inactive = higher.

What was measured:
Assay in all cases: DTP human tumour cell line panel, 48 h
[1] = tested on: HCT-116
[2] = tested on: LOX IMVI
[3] = tested on: KM12
[4] = tested on: OVCAR-8
[5] = tested on: SK-OV-3
[6] = tested on: Hs-578T
[7] = tested on: MCF7
[8] = tested on: Malme-3M
[9] = tested on: SF-295
[10] = tested on: SW-620
[11] = tested on: EKVX
[12] = tested on: T47D
[13] = tested on: NCI-H23
[14] = tested on: OVCAR-4
[15] = tested on: BT-549
[16] = tested on: SNB-75
[17] = tested on: 786-0
[18] = tested on: HCC 2998
[19] = tested on: MDA-N

Measured: GI50

CC[N+](C)(CC)CCN1C(=O)c2ccccc2S1(=O)=O
inactive: [1] > 100 µM | [2] > 100 µM | [3] > 100 µM | [4] > 100 µM | [5] > 100 µM | [6] > 100 µM | [7] > 100 µM | [8] > 100 µM | [9] > 100 µM | [10] > 100 µM | [11] > 100 µM | [12] > 100 µM | [13] > 100 µM | [14] > 100 µM | [15] > 100 µM | [16] > 100 µM | [17] > 100 µM

O=C(CCCCCCCCC(=O)NN1C(=O)/C(=C\c2ccc(O)c(O)c2)SC1c1ccc(Cl)cc1)NN1C(=O)/C(=C\c2ccc(O)c(O)c2)SC1c1ccc(Cl)cc1 (stereo not drawn)
inactive: [1] 24.6 µM | [2] 13.6 µM | [3] 23.8 µM | [4] 10.7 µM | [5] 22.6 µM | [7] 38.8 µM | [8] 23.7 µM | [9] 16.2 µM | [10] 56.5 µM | [18] 34.2 µM | [11] 50.8 µM | [19] > 88.1 µM | [12] 31.9 µM | [13] 15.5 µM | [14] 31.9 µM | [15] > 47.3 µM | [16] 29.9 µM | [17] 7.55 µM

COC(=O)[C@@H](Cc1ccccc1)NNC(=O)OC(C)(C)C
inactive: [1] > 100 µM | [2] > 100 µM | [3] > 100 µM | [4] > 100 µM | [5] > 100 µM | [6] > 100 µM | [7] > 100 µM | [8] > 100 µM | [9] > 100 µM | [10] > 100 µM | [18] > 100 µM | [11] > 100 µM | [12] > 100 µM | [13] > 100 µM | [14] > 100 µM | [15] > 100 µM | [17] > 100 µM

COc1cc(C2SCC(=O)N2NC(=O)c2ccc(NC(C)=O)cc2OC)ccc1O (stereo not drawn)
inactive: [1] > 100 µM | [2] > 100 µM | [4] 25.2 µM | [5] 6.27 µM | [6] > 100 µM | [7] 51.5 µM | [8] > 100 µM | [9] 20.5 µM | [10] > 100 µM | [11] 5.74 µM | [19] > 100 µM | [12] 67.1 µM | [13] 92.9 µM | [14] > 100 µM | [15] > 100 µM | [16] 23.7 µM | [17] 31.3 µM

COc1ccccc1CNC1=Nc2ccncc2S(=O)(=O)N1c1ccccc1
inactive: [1] 70.5 µM | [2] > 100 µM | [3] 56.6 µM | [4] 84.7 µM | [5] > 100 µM | [6] 74.8 µM | [7] 79.4 µM | [8] 37.7 µM | [9] 41.1 µM | [10] > 100 µM | [18] > 100 µM | [11] > 100 µM | [13] 85.1 µM | [14] > 100 µM | [15] > 100 µM | [17] > 100 µM

CCOC(=O)CC[C@H](NC(=O)c1ccc(CNc2nc3cc(C(F)(F)F)ccc3nc2C(=O)OCC)cc1)C(=O)OCC
inactive: [1] > 56.1 µM | [2] > 100 µM | [3] 52.2 µM | [4] 9.42 µM | [5] 31.4 µM | [6] 7.16 µM | [7] 19 µM | [8] 18.8 µM | [9] 8.34 µM | [10] > 61.2 µM | [11] 17.3 µM | [19] > 100 µM | [12] 18.1 µM | [13] 26.1 µM | [15] 18.1 µM | [16] 12.8 µM | [17] 7.19 µM

C=CCN1C(=O)/C(=C/c2ccccc2)NC1=S
inactive: [1] > 100 µM | [2] > 100 µM | [3] > 100 µM | [4] > 100 µM | [5] > 100 µM | [6] > 100 µM | [7] > 100 µM | [8] > 100 µM | [9] > 100 µM | [10] > 100 µM | [18] > 100 µM | [11] 91 µM | [12] > 100 µM | [13] > 100 µM | [14] > 100 µM | [15] > 100 µM | [16] > 100 µM | [17] > 100 µM

Nc1ccc2ccc(N3CCNCC3)nc2n1
inactive: [1] 43.2 µM | [2] > 100 µM | [3] 48.2 µM | [4] > 100 µM | [5] 83.9 µM | [6] 47.5 µM | [7] 70 µM | [8] 38.9 µM | [9] 39.9 µM | [10] 47.6 µM | [18] 44.2 µM | [11] 74.1 µM | [19] 75 µM | [13] 56.8 µM | [14] 57.7 µM | [15] 65.8 µM | [16] > 100 µM | [17] 61.7 µM

COc1ccc(-c2[nH]c(=O)n(C3OC(CO)C(O)C(O)C3O)c(=O)c2C#N)cc1 (stereo not drawn)
inactive: [1] > 100 µM | [3] > 100 µM | [4] > 100 µM | [5] > 100 µM | [6] > 100 µM | [7] > 100 µM | [9] > 100 µM | [10] > 100 µM | [18] > 100 µM | [11] > 100 µM | [12] > 100 µM | [13] > 100 µM | [14] > 100 µM | [15] > 100 µM | [16] > 100 µM | [17] > 100 µM

CN1C(=O)C(C(=O)Nc2ccccn2)C2C[C@@]1(C)Oc1ccccc12 (stereo partly drawn)
inactive: [1] > 100 µM | [2] > 100 µM | [3] > 100 µM | [4] > 100 µM | [5] > 100 µM | [6] > 100 µM | [8] > 100 µM | [9] > 100 µM | [10] > 100 µM | [18] > 100 µM | [11] 63.5 µM | [19] > 100 µM | [13] > 100 µM | [14] > 100 µM | [15] > 100 µM | [16] > 100 µM | [17] > 100 µM

S=C1CCSc2c(ccc3ccccc23)N1
inactive: [1] > 100 µM | [2] > 100 µM | [3] > 100 µM | [4] > 100 µM | [5] 83.9 µM | [6] 19.1 µM | [7] 72.4 µM | [8] > 100 µM | [9] 45.8 µM | [11] 77.6 µM | [19] > 100 µM | [12] 70.5 µM | [13] > 100 µM | [14] 46.7 µM | [15] 67.1 µM | [16] 74.3 µM | [17] > 100 µM
